Assay [1] concerns the target T1, AmpC (Pseudomonas aeruginosa, UniProt P24735).
T1 construct: AmpC, TEM-1, KPC-2 or OXA-2 domain excluding signal peptide was amplified with PCR; made in house; host or cells: Escherichia coli BL21 (DE3), pET-28b(+)
The assay is described as follows: biochemical.

The target in assay [2] is T2, TEM-1 (Escherichia coli, UniProt P62593).
T2 construct: AmpC, TEM-1, KPC-2 or OXA-2 domain excluding signal peptide was amplified with PCR; made in house; host or cells: Escherichia coli BL21 (DE3), pET-28b(+)
The assay can be described thus: β-Lactamase inhibitory activity (nitrocefin hydrolysis), TEM-1. The class given is biochemical. Particulars: TEM-1 0.1 nM, 100 μM nitrocefin, pre-incubation 30° C. 10 minutes. The procedure, abridged: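 Scored as letter classes from <0.1 μM (A) through ≥10 μM (E). Nitrocefin breakdown (100 μM final) by E. coli-expressed, signal-peptide-free TEM-1 was followed at 492 nm after 20 min at 30° C. The buffer was 50 mM phosphate pH 7.0, 10 μg/mL BSA, 2.5% DMSO.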

Assay [3] deals with T3, KPC-2 (Klebsiella pneumoniae, UniProt Q9F663).
T3 construct: AmpC, TEM-1, KPC-2 or OXA-2 domain excluding signal peptide was amplified with PCR; made in house; host or cells: Escherichia coli BL21 (DE3), pET-28b(+)
The assay is described as follows: β-Lactamase inhibitory activity (nitrocefin hydrolysis), KPC-2. In kind it is biochemical. The conditions noted are these: KPC-2 0.5 nM, 100 μM nitrocefin, pre-incubation 30° C. 10 minutes.

Assay [4] addresses T4, OXA-2 (Escherichia coli, UniProt P0A1V9).
T4 construct: AmpC, TEM-1, KPC-2 or OXA-2 domain excluding signal peptide was amplified with PCR; made in house; host or cells: Escherichia coli BL21 (DE3), pET-28b(+)
The assay can be described thus: biochemical. More on the design: species or system P. aeruginosa. The conditions noted are these: OXA-2 2 nM, 100 μM nitrocefin, pre-incubation 30° C. 10 minutes; read-out: β-Lactamase inhibitory activity OXA-2 (IC50).

Bounds are passed on as bounds.

T4 sequence (P0A1V9 22-275): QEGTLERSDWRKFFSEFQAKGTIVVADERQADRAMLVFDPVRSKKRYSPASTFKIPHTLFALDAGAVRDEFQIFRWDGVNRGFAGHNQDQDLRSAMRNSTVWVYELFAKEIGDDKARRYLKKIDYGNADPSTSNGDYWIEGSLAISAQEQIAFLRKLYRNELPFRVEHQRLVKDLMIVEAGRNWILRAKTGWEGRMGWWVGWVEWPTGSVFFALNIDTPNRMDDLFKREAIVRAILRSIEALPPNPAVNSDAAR
T3 sequence (Q9F663 25-293, looked up): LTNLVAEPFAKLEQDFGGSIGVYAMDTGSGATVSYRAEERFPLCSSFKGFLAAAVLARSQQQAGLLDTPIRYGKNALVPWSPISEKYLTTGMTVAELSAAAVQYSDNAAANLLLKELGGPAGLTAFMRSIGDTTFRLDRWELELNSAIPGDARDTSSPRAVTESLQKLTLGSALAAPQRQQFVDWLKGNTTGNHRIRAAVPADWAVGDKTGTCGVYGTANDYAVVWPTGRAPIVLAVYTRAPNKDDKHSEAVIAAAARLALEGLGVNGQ
T1 sequence (P24735 27-397): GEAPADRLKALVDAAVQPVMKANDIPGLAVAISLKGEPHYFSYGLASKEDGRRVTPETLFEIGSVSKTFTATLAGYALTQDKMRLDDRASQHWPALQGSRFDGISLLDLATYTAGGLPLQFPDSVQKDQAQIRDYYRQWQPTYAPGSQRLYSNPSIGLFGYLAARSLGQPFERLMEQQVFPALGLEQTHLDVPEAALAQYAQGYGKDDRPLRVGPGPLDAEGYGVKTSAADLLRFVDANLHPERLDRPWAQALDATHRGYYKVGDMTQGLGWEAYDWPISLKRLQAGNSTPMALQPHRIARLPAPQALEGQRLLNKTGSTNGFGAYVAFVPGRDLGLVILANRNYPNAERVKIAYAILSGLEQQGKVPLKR
T2 sequence (P62593 24-286 limits assumed): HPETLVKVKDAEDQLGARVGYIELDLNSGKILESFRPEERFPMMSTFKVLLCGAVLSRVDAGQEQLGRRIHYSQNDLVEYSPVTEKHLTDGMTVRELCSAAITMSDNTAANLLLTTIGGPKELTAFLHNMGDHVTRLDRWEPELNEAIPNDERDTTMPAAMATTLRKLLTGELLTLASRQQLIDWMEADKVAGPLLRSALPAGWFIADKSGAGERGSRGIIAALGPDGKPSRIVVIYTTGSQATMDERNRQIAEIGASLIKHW

As a reminder, the IC50 is the concentration needed to halve the response being measured. Take `O=C(NOC[C@@H]1CCCN1)[C@@H]1CC[C@@H]2CN1C(=O)N2OS(=O)(=O)O` [Example 76, (2S,5R)-7-Oxo-N-[(2S)-pyrrolidin-2-ylmethoxy]-6-(sulfooxy)-1,6-diazabicyclo[3.2.1]octane-2-carboxamide]: the IC50 was 100 to 1000 nM in assay [1], below 100 nM in assay [2], 100 to 1000 nM in assay [3] and 100 to 1000 nM in assay [4].
For `O=C(NOC[C@H]1CCCN1)[C@@H]1CC[C@@H]2CN1C(=O)N2OS(=O)(=O)O` [Example 77, (2S,5R)-7-Oxo-N-[(2R)-pyrrolidin-2-ylmethoxy]-6-(sulfooxy)-1,6-diazabicyclo[3.2.1]octane-2-carboxamide], the IC50 is 100 to 1000 nM in assay [1], below 100 nM in assay [2], 100 to 1000 nM in assay [3] and 100 to 1000 nM in assay [4].
As for `O=C(NOC[C@@H]1CCCCN1)[C@@H]1CC[C@@H]2CN1C(=O)N2OS(=O)(=O)O` [Example 78, (2S,5R)-7-Oxo-N-[(2S)-piperidine-2-ylmethoxy]-6-(sulfooxy)-1,6-diazabicyclo[3.2.1]octane-2-carboxamide], the IC50 in assay [1] is 100 to 1000 nM; in assay [2] it was below 100 nM; in assay [3], 1000 to 3000 nM; in assay [4], 1000 to 3000 nM.
For the molecule `O=C(NOC1CNC1)[C@@H]1CC[C@@H]2CN1C(=O)N2OS(=O)(=O)O` [Example 79, (2S,5R)—N-(Azetidin-3-yloxy)-7-oxo-6-(sulfooxy)-1,6-diazabicyclo[3.2.1]octane-2-carboxamide], the IC50 in assay [1] is 100 to 1000 nM; in assay [2], below 100 nM; in assay [3] it was 1000 to 3000 nM; in assay [4] it was 1000 to 3000 nM.
On to `O=C(NO[C@@H]1CCNC1)[C@@H]1CC[C@@H]2CN1C(=O)N2OS(=O)(=O)O` [Example 80, (2S,5R)-7-Oxo-N-[(3R)-pyrrolidin-3-yloxy]-6-(sulfooxy)-1,6-diazabicyclo[3.2.1]octane-2-carboxamide], for which the IC50 is 100 to 1000 nM in assay [1], below 100 nM in assay [2], 1000 to 3000 nM in assay [3] and 100 to 1000 nM in assay [4].
Regarding `O=C(NO[C@H]1CCNC1)[C@@H]1CC[C@@H]2CN1C(=O)N2OS(=O)(=O)O` [Example 81, (2S,5R)-7-Oxo-N-[(3S)-pyrrolidin-3-yloxy]-6-(sulfooxy)-1,6-diazabicyclo[3.2.1]octane-2-carboxamide], the IC50 in assay [1] was below 100 nM; in assay [2], below 100 nM; in assay [3], 100 to 1000 nM; in assay [4], 1000 to 3000 nM.
For `O=C(NOCC1CNC1)[C@@H]1CC[C@@H]2CN1C(=O)N2OS(=O)(=O)O` [Example 82, (2S,5R)—N-(Azetidin-3-ylmethoxy)-7-oxo-6-(sulfooxy)-1,6-diazabicyclo[3.2.1]octane-2-carboxamide], the IC50 in assay [1] is below 100 nM; in assay [2], below 100 nM; in assay [3], 100 to 1000 nM; in assay [4] it was 100 to 1000 nM.
With `O=C(NOC[C@@H]1CCCNC1)[C@@H]1CC[C@@H]2CN1C(=O)N2OS(=O)(=O)O` [Example 83, (2S,5R)-7-Oxo-N-[(3R)-piperidine-3-ylmethoxy]-6-(sulfooxy)-1,6-diazabicyclo[3.2.1]octane-2-carboxamide], the IC50 was below 100 nM in assay [1], below 100 nM in assay [2], 100 to 1000 nM in assay [3] and 100 to 1000 nM in assay [4].
Take `O=C(NOC1CCNCC1)[C@@H]1CC[C@@H]2CN1C(=O)N2OS(=O)(=O)O` [Example 84, (2S,5R)-7-Oxo-N-(piperidine-4-yloxy)-6-(sulfooxy)-1,6-diazabicyclo[3.2.1]octane-2-carboxamide]: the IC50 in assay [1] is below 100 nM; in assay [2] it was below 100 nM; in assay [3], 1000 to 3000 nM; in assay [4], 100 to 1000 nM.
For the molecule `O=C(NOCC1CCNCC1)[C@@H]1CC[C@@H]2CN1C(=O)N2OS(=O)(=O)O` [Example 85, (2S,5R)-7-Oxo-N-(piperidine-4-ylmethoxy)-6-(sulfooxy)-1,6-diazabicyclo[3.2.1]octane-2-carboxamide], the IC50 was below 100 nM in assay [1], below 100 nM in assay [2], 100 to 1000 nM in assay [3] and 100 to 1000 nM in assay [4].
